Counter-ions that a name gives are not always drawn.
How the values were obtained:
rabbit platelets = rabbit platelets (Oryctolagus cuniculus, UniProt G1TEI7); assay: in vitro platelet agglutination inhibition test (PAF-induced); format: cell-based; conditions: rabbit platelet-rich plasma, PAF final concentration 10 ng/ml, 37°C; read-out: PAF-Induced Platelet Aggregation IC50 (converted)
Experimental: To determine the PAF-antagonizing property of the compounds, the PAF-induced agglutination of rabbit platelets in vitro is utilized. To obtain platelet-rich plasma (PRP), venous blood is taken from rabbit auricular vein into a plastic centrifugal tube containing 1.0% sodium citrate solution. The ratio of sodium citrate solution to blood is 1:10. The obtained citrate-containing blood is centrifuged at 70 x g (625 rpm) at room temperature for 20 minutes and the PRP in the upper layer is transferred to another plastic tube. The remaining lower layer is further centrifuged at 1500 x g (2800 rpm) for 10 minutes and the platelet poor plasma (PPP) in the upper layer is recovered. The platelet agglutination is measured by using aggregometer commercially available from Niko Bioscience, Inc. An aliquote of the PRP is poured into a cubette for measurement. Immediately thereafter, aspirin, creatinin phosphate and creatinin phosphokinase are added to final concentrations of 0.1 mM, 7 mM and 45 U/ml, respectively. Then a solution of a test compound is added and the resulting mixture is stirred at 37°C for 2 minutes. To the resultant, PAF (final concentration: 10 ng/ml) is added to induce platelet aggregation. The platelet aggregation rate is calculated from the relative maximum value in each aggregation curve taking the transmittance of PPP as the maximum aggregation (100% aggregation). Using the aggregation rate when physiological saline was added as a control, the inhibition rate which was the ratio of the aggregation rate when the test compound was added to the control was calculated and the IC50 values were determined by interpolation.

PAF receptor = molecular target: T1, PAF receptor (Oryctolagus cuniculus, UniProt G1TEI7); assay: Binding test using [3H]-PAF (PAF receptor binding test); design: species or system rabbit; conditions: rabbit platelet membrane fraction, [3H]-PAF 0.4 nM, 25°C, 60 minutes; read-out: Receptor Binding Inhibition IC50 (converted)
T1 construct: Cell membrane fraction of rabbit platelets was prepared; from tissue; host or cells: rabbit platelets (cell membrane fraction)
T1 sequence (G1TEI7 1-342): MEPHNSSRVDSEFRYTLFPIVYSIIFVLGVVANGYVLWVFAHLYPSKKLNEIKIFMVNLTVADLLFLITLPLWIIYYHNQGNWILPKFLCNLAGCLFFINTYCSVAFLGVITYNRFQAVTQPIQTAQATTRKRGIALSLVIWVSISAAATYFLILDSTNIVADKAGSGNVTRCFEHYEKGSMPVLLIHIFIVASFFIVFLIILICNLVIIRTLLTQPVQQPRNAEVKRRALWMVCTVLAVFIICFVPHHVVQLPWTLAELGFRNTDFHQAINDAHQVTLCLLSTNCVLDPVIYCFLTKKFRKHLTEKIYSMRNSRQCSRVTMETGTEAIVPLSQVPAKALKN
Experimental: Binding Test Using [^3H]-PAF (PAF receptor binding test)
Cell membrane fraction of rabbit platelets was prepared in accordance with the method by Hwang et al (Biochemistry; 22; 4756, (1983)). In 10 mM Tris buffer containing 0.25% bovine serum albumin, 50 mg of this membrane fraction was suspended and tritium-labelled PAF [^3H]-PAF; 0.4 nM) and a test compound were added thereto. After incubating the resulting mixture at 25°C for 60 minutes, the mixture was subjected to filtration through a filter paper made of glass fibers. The filter paper was washed with cold Tris buffer three times and then transferred to a vial. A scintillator was added thereto and the dose of radioactivity was measured with a liquid scintillation counter. The inhibition rate (binding ability) of the test compound was calculated according to the following equation and IC50 values were determined by interpolation. Inhibition Rate (%) = {1 - [((A - B))/((C - B))]} x 100 [formula] (wherein A represents amount bound in the presence of the compound, B represents amount bound by non-specific binding which is the dose of [^3H]-PAF bound radioactivity in the presence of 1 µM of PAF, and C represents total amount bound which is the dose of [^3H]-PAF bound radioactivity.
As a control agent, WEB2086 (Japanese Laid-open Patent Application (Kokai) No. 65-176591) disclosed as a PAF-antagonist was used.

Chain of rabbit platelets (G1TEI7 1-342): as above

SMILES | IC50 (rabbit platelets) [nM] | IC50 (PAF receptor) [nM]
Cc1nnc2n1-c1ccccc1N(CCCN1CCC(C(O)(c3cccs3)c3cccs3)CC1)C2 [Compound 127] | 455 | 152
CCCc1nnc2n1-c1ccccc1N(CCCN1CCC(c3c[nH]c4ccccc34)CC1)C2 [Compound 53, 4,5-dihydro-1-propyl-5-[3-[4-(3-indolyl)piperidin-1-yl]propyl] [1,2,4]triazolo[4,3-a]quinoxaline] | 3960 | 3300
Cc1nnc2n1-c1ccccc1N(CCCN1CCC(=C(c3ccccc3)c3ccc(Cl)cc3)CC1)C2 [Compound 149, 4,5-dihydro-1-methyl-5-[3-[4-[(4-chlorophenyl)phenylmethylene]piperidin-1-yl]propyl] [1,2,4]triazolo[4,3,a]quinoxaline] | 1080 | 206
Cc1nnc2n1-c1ccccc1N(CCCN1CCC(=C(c3ccc(Cl)cc3)c3ccc(Cl)cc3)CC1)C2 [Compound 150, 4,5-dihydro-1-methyl-5-[3-[4-[bis(4-chlorophenyl)methylene]piperidin-1-yl]propyl] [1,2,4]triazolo[4,3,a]quinoxaline] | 937 | 152
Cc1nnc2n1-c1ccccc1N(CCCN1CCC(n3c(=O)[nH]c4ccccc43)CC1)C2 [Compound 81, 4,5-dihydro-1-methyl-5-[3-[4-(2-keto-1-benzimidazolynyl)piperidin-1-yl]propyl][1,2,4]triazolo[4,3-a] quinoxaline] | 1530 | 3380
Cc1nnc2n1-c1ccccc1N(CCCN1CCC(C(O)(c3ccc(F)cc3)c3ccc(F)cc3)CC1)C2C (stereo not drawn) [Compound 90, 4,5-dihydro-1,4-dimethyl-5-[3-[4-[hydroxybis(4-fluorophenyl)methyl]piperidin-1-yl]propyl][1,2,4]triazolo[4,3-a] quinoxaline] | 1030 | 1820
Cc1nnc2n1-c1ccccc1N(CCCN1CCC(=C(c3ccccc3)c3ccc(C(F)(F)F)cc3)CC1)C2 [Compound 151, 4,5-dihydro-1-methyl-5-[3-[4-[[4-(trifluoromethyl)phenyl]phenylmethylene]piperidin-1-yl]propyl] [1,2,4]triazolo[4,3,a]quinoxaline] | 1400 | 110
Cc1nnc2n1-c1ccccc1N(CCCN1CCC(c3noc4ccccc34)CC1)C2 [Compound 80, 4,5-dihydro-1-methyl-5-[3-[4-(1,2-benzisoxazol-3-yl)piperidin-1-yl]propyl][1,2,4]triazolo[4,3-a] quinoxaline] | 103 | 770
Cc1nnc2n1-c1ccc(Cl)cc1N(CCCN1CCC(c3c[nH]c4ccccc34)CC1)C2 [Compound 65, 7-chloro-4,5-dihydro-1-methyl-5-[3-[4-(3-indolyl)piperidin-1-yl]propyl][1,2,4]triazolo[4,3-a]quinoxaline] | 4340 | 10400
CCn1cc(C2CCN(CCCN3Cc4nnc(C)n4-c4ccccc43)CC2)c2ccccc21 [Compound 64, 4,5-dihydro-1-methyl-5-[3-[4-(1-ethyl-3-indolyl)piperidin-1-yl]propyl][1,2,4]triazolo[4,3-a] quinoxaline fumaric acid salt] | 2800 | 806
COc1cccc(C(O)(c2cccc(OC)c2)C2CCN(CCCN3Cc4nnc(C)n4-c4ccccc43)CC2)c1 [Compound 135, 4,5-dihydro-1-methyl-5-[3-[4-[hydroxybis(3-methoxyphenyl)methyl]piperidin-1-yl]propyl] [1,2,4]triazolo[4,3-a]quinoxaline] | 1590 | 37.9
COc1ccc(C(O)(c2ccccc2)C2CCN(CCCN3Cc4nnc(C)n4-c4ccccc43)CC2)cc1OC (stereo not drawn) [Compound 130, 4,5-dihydro-1-methyl-5-[3-[4-[hydroxy(3,4-dimethoxyphenyl)phenylmethyl]piperidin-1-yl]propyl] [1,2,4]triazolo[4,3-a]quinoxaline] | 578 | 126
Cc1nnc2n1-c1ccccc1N(CCCN1CCC(=C(c3ccccc3)c3ccccc3)C1)C2 [Compound 85, 4,5-dihydro-1-methyl-5-[3-[3-(diphenylmethylene)pyrrolidin-1-yl]propyl][1,2,4]triazolo[4,3-a] quinoxaline] | 3030 | 238
COc1ccccc1N1CCN(CCCN2Cc3nnc(C)n3-c3ccccc32)CC1 [Compound 86, 4,5-dihydro-1-methyl-5-[3-[4-(2-methoxyphenyl)piperazin-1-yl]propyl][1,2,4]triazolo[4,3-a] quinoxaline] | 5260 | 7170
COc1ccc(C(=C2CCN(CCCN3Cc4nnc(C)n4-c4ccccc43)CC2)c2ccccc2)cc1OC [Compound 142, 4,5-dihydro-1-methyl-5-[3-[4-[(3,4-dimethoxyphenyl)phenylmethylene]piperidin-1-yl]propyl] [1,2,4]triazolo[4,3,a]quinoxaline] | 952 | 162
COc1cccc(C(=C2CCN(CCCN3Cc4nnc(C)n4-c4ccccc43)CC2)c2ccccc2)c1 [Compound 140, 4,5-dihydro-1-methyl-5-[3-[4-[(3-methoxyphenyl)phenylmethylene]piperidin-1-yl]propyl] [1,2,4]triazolo[4,3,a]quinoxaline] | 475 | 11.9
Cc1cccc(C(O)(c2ccccc2)C2CCN(CCCN3Cc4nnc(C)n4-c4ccccc43)CC2)c1 (stereo not drawn) [Compound 132, 4,5-dihydro-1-methyl-5-[3-[4-[hydroxyphenyl(3-tolyl)methyl]piperidin-1-yl]propyl] [1,2,4]triazolo[4,3-a]quinoxaline] | 70.9 | 51.2

The remaining lines, values ahead:

IC50 (rabbit platelets) [nM] | IC50 (PAF receptor) [nM] | SMILES
609 | 342 | Cc1nnc2n1-c1ccccc1N(CCCN1CCC(=C(c3ccccc3)c3ccc4ccccc4c3)CC1)C2 [Compound 163, 4,5-dihydro-1-methyl-5-[3-[4-[(2-naphthyl)phenylmethylene]piperidin-1-yl]propyl] [1,2,4]triazolo[4,3,a]quinoxaline]
586 | 75 | Cc1ccc2[nH]cc(C3CCN(CCCn4c5ccccc5n5c(C)nnc45)CC3)c2c1 [Compound 197, 3-methyl-9-[3-[4-(5-methyl-3-indolyl)piperidin-1-yl]propyl]-9H-[1,2,4]triazolo[4,3-a]benzimidazole]
1520 | 820 | Cc1nnc2n1-c1ccccc1N(CCCN1CCC(=C(c3cccs3)c3cccs3)CC1)C2 [Compound 165, 4,5-dihydro-1-methyl-5-[3-[4-[bis(2-thienyl)methylene]piperidin-1-yl]propyl] [1,2,4]triazolo[4,3,a]quinoxaline]
372 | 178 | Cc1nnc2n1-c1ccccc1N(CCCN1CCC(=C(c3ccccc3)c3cccc(Cl)c3)CC1)C2 [Compound 154, 4,5-dihydro-1-methyl-5-[3-[4-[(3-chlorophenyl)phenylmethylene]piperidin-1-yl]propyl] [1,2,4]triazolo[4,3,a]quinoxaline]
4320 | 1810 | Cc1nnc2n(CCCN3CCC(=C4c5ccccc5C=Cc5ccccc54)CC3)c3ccccc3n12 [Compound 206, 3-methyl-9-[3-[4-(5H-dibenzo[a,d]cyclohepten-5-ylidene)piperidin-1-yl]propyl]-9H-[1,2,4]triazolo[4,3-a]benzimidazole]
277 | 294 | Cc1nnc2n(CCCN3CCC(=C(c4ccccc4)c4ccccc4)CC3)c3ccccc3n12 [Compound 201, 3-methyl-9-[3-[4-(diphenylmethylene)piperidin-1-yl]propyl]-9H-[1,2,4]triazolo[4,3-a]benzimidazole fumaric acid salt]
30.2 | 557 | Cc1nnc2n(CCCN3CCC(c4c[nH]c5ccc(F)cc45)CC3)c3ccccc3n12 [Compound 196, 3-methyl-9-[3-[4-(5-fluoro-3-indolyl)piperidin-1-yl]propyl]-9H-[1,2,4]triazolo[4,3-a]benzimidazole]
1120 | 55.9 | Cc1nnc2n1-c1ccccc1N(CCCN1CCC(=C(c3ccccc3)c3ccc(N(C)C)cc3)CC1)C2 [Compound 156, 4,5-dihydro-1-methyl-5-[3-[4-[(4-dimethylaminophenyl)phenyimethylene]piperidin-1-yl]propyl] [1,2,4]triazolo[4,3,a]quinoxaline]
38.6 | 50.4 | Cc1nnc2n(CCCN3CCC(OC(c4ccccc4)c4ccccc4)CC3)c3ccccc3n12 [Compound 200, 3-methyl-9-[3-[4-(diphenylmethoxy)piperidin-1-yl]propyl]-9H-[1,2,4]triazolo[4,3-a]benzimidazole fumaric acid salt]
80.8 | 1980 | CCCc1nnc2n(CCCN3CCC(c4c[nH]c5ccccc45)CC3)c3ccccc3n12 [Compound 194, 3-propyl-9-[3-[4-(3-indolyl)piperidin-1-yl]propyl]-9H-[1,2,4]triazolo[4,3-a]benzimidazole fumaric acid salt]
313 | 246 | Cc1nnc2n(CCCN3CCC(c4c[nH]c5ccc(Cl)cc45)CC3)c3ccccc3n12 [Compound 195, 3-methyl-9-[3-[4-(5-chloro-3-indolyl)piperidin-1-yl]propyl]-9H-[1,2,4]triazolo[4,3-a] benzimidazole]
2200 | 132 | Cc1nnc2n1-c1ccccc1N(CCCN1CCC(=C(c3cccc(Cl)c3)c3cccc(Cl)c3)CC1)C2 [Compound 155, 4,5-dihydro-1-methyl-5-[3-[4-[bis(3-chlorophenyl)methylene]piperidin-1-yl]propyl] [1,2,4]triazolo[4,3,a]quinoxaline]
1190 | 351 | Cc1nnc2n1-c1ccccc1N(CCCN1CCC(=C(c3ccco3)c3ccco3)CC1)C2 [Compound 161, 4,5-dihydro-1-methyl-5-[3-[4-[bis(2-furyl)methylene]piperidin-1-yl]propyl] [1,2,4]triazolo[4,3,a]quinoxaline]

From patent EP0536419B1, “TRICYCLIC TRIAZOLE DERIVATIVES, PRODUCTION AND USE THEREOF” (TORAY INDUSTRIES, INC., priority 1991, dated 1992)
